Measurements: patent US7371555B2, “Polypeptides having α-H-α-amino acid amide racemase activity and nucleic acids encoding the same” (DSM IP Assets B.V., priority 2002, dated 2008)

Key:
[1] = system: CFE from E. coli DH10B/pOa(1)PLV49B10 combined with the L-aminopeptidase from Pseudomonas putida ATCC 12633; assay: Racemase activity test with DL-2-amino-5-[1,3]dioxolan-2-yl-pentanoic acid amide, CFE combined with L-aminopeptidase (Example 12); assay type: biochemical, Ochrobactrum anthropi IA; Pseudomonas putida ATCC 12633
Experimental: (§1) A reaction mixture of 10 ml (total volume including enzyme preparations) was prepared containing 50 mM HEPES-NaOH, pH 8.0, 20 μM pyridoxal-5-phosphate, 0.4 mg/ml BSA, 1 mM dithiothreitol, and 75 mM of DL-2-aminobutyric acid amide. Reaction was started by the addition of 0.4 ml of the thawed CFE of E. coli DH10B/pOa(1)PLV49B10 and 0.17 ml of a solution containing L-aminopeptidase from P. putida ATCC 12633. The reaction mixture was incubated at 37° C. for 18 h. At certain time intervals samples of 1 ml were taken and transferred to vials containing 1 ml of MeOH to stop the reaction. Analysis of these samples to determine the concentrations L- and D-2-aminobutyric acid and L- and D-2-aminobutyric acid amide was done by HPLC according to the protocol of Example 11.
In a very similar set-up, the combined activity of the α-H-α-amino acid amide racemase from O. anthropi IA and the L-aminopeptidase from P. putida ATCC 12633 was determined towards the more complex substrate DL-2-amino-5-[1,3]dioxolan-2-yl-pentanoic acid amide. The molecular structure of this amide can be found in the substrate table in Example 8. In this experiment 1 ml of the thawed CFE from E. coli DH10B/pOa(1)PLV49B10 was used together with 1 ml of a solution containing L-aminopeptidase from P. putida ATCC 12633. Reaction proceeded for 120 hours. Analysis of these samples to determine the concentrations L- and D-2-amino-5-[1,3]dioxolan-2-yl-pentanoic acid and L- and D-2-amino-5-[1,3]dioxolan-2-yl-pentanoic acid amide was done by HPLC according to the following protocol. • column: Crownether Cr(−) (150 mm×4.0 mm ID) • eluent: Perchloric acid in water, pH=1.0 • flow: 1.2 ml/min. • column temp.: 18° C. • inj. volume: 20 μl • detection: fluorescence detection after post-column reaction with o-phthalaldehyde and 2-mercaptoethanol in 0.4 M borate buffer. (wavelength ex=338 nm and em>420 nm)

[2] = system: CFE from E. coli DH10B/pOa(1)PLV49B10 combined with the L-aminopeptidase from Pseudomonas putida ATCC 12633; assay: Racemase activity test with DL-2-aminobutyric acid amide, CFE combined with L-aminopeptidase (Example 11); assay type: biochemical, Ochrobactrum anthropi IA; Pseudomonas putida ATCC 12633
Experimental: In this experiment, the E. coli DH10B/pOa(1)PLV49B10 CFE from Example 11 was used. It was combined with a preparation containing the L-aminopeptidase from P. putida ATCC 12633. This is the same L-enantioselective enzyme as was used as L-aminopeptidase help solution in the screening of the O. anthropi IA and A. nicotianae NCIMB 41126 gene libraries (Examples 3 and 3A).
as §1

[3] = system: CFE from E. coli DH10B/pOa(1)PLV49B10 containing the α-H-α-amino acid amide racemase from O. anthropi IA; assay: Racemase activity test with DL-2-aminobutyric acid amide and CFE from E. coli DH10B/pOa(1)PLV49B10 (Example 10); assay type: biochemical, Ochrobactrum anthropi IA; conditions: Strain A; for Conversion: conversion to the L-acid
Experimental: Also in this case, E. coli TOP10/pBAD/Myc-HisC was treated in exactly the same way to serve as negative control.
To determine the activity of the CFE from E. coli DH10B/pOa(1)PLV49B10 and E. coli TOP10/pBAD/Myc-HisC, reaction mixtures of 10 ml each were prepared containing 50 mM HEPES-NaOH, pH 8.0, 20 μM pyridoxal-5-phosphate, 0.4 mg/ml BSA, 1 mM dithiothreitol, and 75 mM of DL-2-aminobutyric acid amide. Reactions were started by the addition of 1 ml of the thawed CFE of E. coli DH10B/pOa(1)PLV49B10 or E. coli TOP10/pBAD/Myc-HisC (blank) and were incubated at 37° C. for 21.5 h. At regular time intervals samples of 1 ml were taken and transferred to vials containing 1 ml of MeOH to stop the reaction. Analysis of these samples to determine the concentrations L- and D-2-aminobutyric acid and L- and D-2-aminobutyric acid amide was done by HPLC according to the following protocol. • column: Sumichiral OA5000 from Sumika (150×4.6 mm I.D., 5μ)+guard column • eluent: 4 mM CuSO4 in water • flow: 1 ml/min. • column temp.: 10° C. • inj. volume: 6 μl • detection: fluorescence detection after post-column reaction with o-phthalaldehyde and 2-mercaptoethanol in 0.4 M borate buffer with addition of EDTA (wavelength ex=338 nm and em>420 nm)

[4] = system: E. coli DH10B/pOA(1)PLV49B10 cells containing the α-H-α-amino acid amide racemase gene from Ochrobactrum anthropi IA; assay: Racemase activity test with DL-leucine amide and whole E. coli cells (Example 6); assay type: cell-based; conditions: Strain A
Experimental: To determine the activity of E. coli/pOA(1)PLV49B10 and the E. coli control, the above-mentioned cell pellets were thawed and resuspended to a total volume of 1 ml with 50 mM HEPES-NaOH buffer, pH 7.7. Then, reaction mixtures of 10 ml each were prepared containing 50 mM HEPES-NaOH buffer (pH 7.7), 10 μM pyridoxal-5-phosphate (PLP), 2.5 wt % of D-leucine amide, if applicable 20 mM of EDTA to suppress the E. coli amidase activity, and 0.5 ml of the E. coli/pOA(1)PLV49B10 and E. coli DH10B/pZErO-GFPuv-wrong-orientation cell suspensions or water (for chemical blanks). Reactions were started by the addition of the cells. Reaction mixtures were incubated at 30° C. and 175 rpm. Directly after addition of the cells (t=0 hours) and after 27 and 43 hours samples were taken in which the reaction was stopped by removal of the cells via centrifugation followed by 0.22 μM filtration. Finally, the filtered samples were stored at −20° C. until analysis by chiral HPLC as described below: • column: Sumichiral OA5000 from Sumika (150×4.6 mm I.D., 5μ)+guard column • eluent: 85 v/v % 2 mM CuSO4+15 v/v % methanol • flow: 1.0 ml/min. • column temp.: 40° C. • inj. volume: 5 μl • detection: fluorescence detection after post-column reaction with o-phthalaldehyde and 2-mercaptoethanol (wavelength ex=338 nm and em>420 nm)
The E. coli DH10B/pOA(1)PLV49B10 and E. coli DH10B/pZErO-GFPuv-wrong-orientation cell suspensions from Example 5 (Preparation of the cells) were used. To determine their activity towards racemic DL-leucine amide, identical reaction mixtures were prepared as in Example 5, except that 2.5 wt % of DL-leucine amide was used, EDTA was omitted in all reactions, and the reactions were started with […] of the cell suspensions. Samples were taken directly after the start of the reactions (t=0 hours) and after 8 and 24 hours.

[5] = system: lyophilized O. anthropi IA cells; assay: α-H-α-amino acid amide racemase activity of lyophilized O. anthropi IA cells; assay type: biochemical, Ochrobactrum anthropi IA; conditions: control experiment
Experimental: O. anthropi IA cells were cultivated in Medium A containing DL-α-amino-ε-caprolactam (2 g/l) as sole nitrogen source. After incubation at 28° C. and 200 rpm for three days (OD620 nm=4.7), cells were harvested by centrifugation, washed in 20 mM HEPES-NaOH buffer of pH 7.7 and lyophilized.
The assay mixture consisted of 10 mM HEPES-NaOH buffer (pH 7.7) containing toluene (2,5 v/v %), pyridoxal-5-phosphate (20 μM), D- or L-leucine amide (2.5 m %) and in some cases EDTA (20 mM). Per assay 150 mg of lyophilized cells were used. Chemical blanks (with the assay mixture without the O. anthropi IA cells) were used as a negative control. All reaction mixtures (including the blanks) were incubated for approximately 72 hours at 40° C. before the reaction was stopped by the addition of 9 volumes of 1 M H3PO4. Finally, the reaction mixtures were analyzed by HPLC to determine the concentrations of D- and L-leucine amide and of D- and L-leucine. o-Phthaldehyde in combination with D-3-mercapto-2-methylpropionic acid was used in this HPLC method as a chiral reagent for the enantioseparation of these amino compounds (Duchateau, et al., J. Chromatogr. (1992) 623:237-245).
In a number of reactions EDTA was added to inhibit L- and/or D-specific amidase(s) present in the O. anthropi IA cells.
Without EDTA, amidases convert the substrate and/or product α-H-α-amino acid amides into α-H-α-amino acids thereby preventing direct detection of the other α-H-α-amino acid amide enantiomer as racemization product. […] Formation of L-leucine from D-leucine amide could not be detected in the chemical blank.

NC(=O)C(N)CCCC1OCCO1 (racemic) [DL-2-amino-5-[1,3]dioxolan-2-yl-pentanoic acid amide]
Conversion ([1]; incubation time 0 h): 5.6%
D-Abu ([1]; incubation time 0 h): 0.0 mM
D-Abu amide ([1]; incubation time 0 h): 36.6 mM
L-Abu ([1]; incubation time 0 h): 4.3 mM
L-Abu amide ([1]; incubation time 0 h): 36.5 mM
Conversion ([1]; incubation time 3.6 h): 49.5%
D-Abu ([1]; incubation time 3.6 h): 0.0 mM
D-Abu amide ([1]; incubation time 3.6 h): 35.7 mM
L-Abu ([1]; incubation time 3.6 h): 37.6 mM
L-Abu amide ([1]; incubation time 3.6 h): 2.7 mM
Conversion ([1]; incubation time 22.1 h): 56.6%
D-Abu ([1]; incubation time 22.1 h): 0.1 mM
D-Abu amide ([1]; incubation time 22.1 h): 29.9 mM
L-Abu ([1]; incubation time 22.1 h): 40.3 mM
L-Abu amide ([1]; incubation time 22.1 h): 1.0 mM
Conversion ([1]; incubation time 53.2 h): 61.1%
D-Abu ([1]; incubation time 53.2 h): 0.1 mM
D-Abu amide ([1]; incubation time 53.2 h): 27.4 mM
L-Abu ([1]; incubation time 53.2 h): 43.5 mM
L-Abu amide ([1]; incubation time 53.2 h): 0.1 mM
D-Abu ([1]; incubation time 120.2 h): 0.4 mM
D-Abu amide ([1]; incubation time 120.2 h): 23.7 mM
L-Abu ([1]; incubation time 120.2 h): 46.0 mM
L-Abu amide ([1]; incubation time 120.2 h): 0.1 mM

CCC(N)C(N)=O (racemic) [DL-2-aminobutyric acid (Abu) amide, DL-2-aminobutyric acid amide]
Conversion ([2]; incubation time 0 h): 0.7%
D-Abu ([2]; incubation time 0 h): 0.0 mM
D-Abu amide ([2]; incubation time 0 h): 36.2 mM
L-Abu ([2]; incubation time 0 h): 0.5 mM
L-Abu amide ([2]; incubation time 0 h): 34.1 mM
Conversion ([2]; incubation time 0.5 h): 17.1%
D-Abu ([2]; incubation time 0.5 h): 0.0 mM
D-Abu amide ([2]; incubation time 0.5 h): 34.6 mM
L-Abu ([2]; incubation time 0.5 h): 11.7 mM
L-Abu amide ([2]; incubation time 0.5 h): 22.2 mM
Conversion ([2]; incubation time 1.0 h): 42.4%
D-Abu ([2]; incubation time 1.0 h): 0.1 mM
D-Abu amide ([2]; incubation time 1.0 h): 36.4 mM
L-Abu ([2]; incubation time 1.0 h): 32.2 mM
L-Abu amide ([2]; incubation time 1.0 h): 7.3 mM
Conversion ([2]; incubation time 1.5 h): 51.9%
D-Abu ([2]; incubation time 1.5 h): 0.0 mM
D-Abu amide ([2]; incubation time 1.5 h): 33.0 mM
L-Abu ([2]; incubation time 1.5 h): 38.5 mM
L-Abu amide ([2]; incubation time 1.5 h): 2.7 mM
Conversion ([2]; incubation time 2.0 h): 56.7%
D-Abu ([2]; incubation time 2.0 h): 0.0 mM
D-Abu amide ([2]; incubation time 2.0 h): 30.4 mM
L-Abu ([2]; incubation time 2.0 h): 41.9 mM
L-Abu amide ([2]; incubation time 2.0 h): 1.7 mM
Conversion ([2]; incubation time 18 h): 97.3%
D-Abu ([2]; incubation time 18 h): 1.6 mM
D-Abu amide ([2]; incubation time 18 h): 0.4 mM
L-Abu ([2]; incubation time 18 h): 70.8 mM
L-Abu amide ([2]; incubation time 18 h): 0.0 mM
D-Abu ([3]; incubation time 0 h): 0.0 mM
D-Abu amide ([3]; incubation time 0 h): 42.3 mM
L-Abu ([3]; incubation time 0 h): 1.4 mM
L-Abu amide ([3]; incubation time 0 h): 40.5 mM
Conversion ([3]; incubation time 0 h): 1.6%
D-Abu ([3]; incubation time 0.75 h): 0.0 mM
D-Abu amide ([3]; incubation time 0.75 h): 39.6 mM
L-Abu ([3]; incubation time 0.75 h): 12.3 mM
L-Abu amide ([3]; incubation time 0.75 h): 29.3 mM
Conversion ([3]; incubation time 0.75 h): 15.2%
D-Abu ([3]; incubation time 2 h): 0.0 mM
D-Abu amide ([3]; incubation time 2 h): 34.7 mM
L-Abu ([3]; incubation time 2 h): 29.1 mM
L-Abu amide ([3]; incubation time 2 h): 17.8 mM
Conversion ([3]; incubation time 2 h): 35.7%
D-Abu ([3]; incubation time 4.65 h): 0.1 mM
D-Abu amide ([3]; incubation time 4.65 h): 20.8 mM
L-Abu ([3]; incubation time 4.65 h): 52.3 mM
L-Abu amide ([3]; incubation time 4.65 h): 11.5 mM
Conversion ([3]; incubation time 4.65 h): 61.8%
D-Abu ([3]; incubation time 8.25 h): 0.5 mM
D-Abu amide ([3]; incubation time 8.25 h): 12.4 mM
L-Abu ([3]; incubation time 8.25 h): 64.9 mM
L-Abu amide ([3]; incubation time 8.25 h): 8.6 mM
Conversion ([3]; incubation time 8.25 h): 75.1%
D-Abu ([3]; incubation time 21.5 h): 1.4 mM
D-Abu amide ([3]; incubation time 21.5 h): 6.7 mM
L-Abu ([3]; incubation time 21.5 h): 71.7 mM
L-Abu amide ([3]; incubation time 21.5 h): 5.8 mM
Conversion ([3]; incubation time 21.5 h): 83.9%

CC(C)CC(N)C(N)=O (racemic) [DL-leucine amide]
D-leucine ([4]; incubation time 0 h): 0.001 wt %
D-leucine amide ([4]; incubation time 0 h): 1.19 wt %
L-leucine ([4]; incubation time 0 h): 0.003 wt %
L-leucine amide ([4]; incubation time 0 h): 1.25 wt %
D-leucine ([4]; incubation time 8 h): 0.004 wt %
D-leucine amide ([4]; incubation time 8 h): 1.24 wt %
L-leucine ([4]; incubation time 8 h): 1.45 wt %
L-leucine amide ([4]; incubation time 8 h): 0.33 wt %
D-leucine ([4]; incubation time 24 h): 0.028 wt %
D-leucine amide ([4]; incubation time 24 h): 0.43 wt %
L-leucine ([4]; incubation time 24 h): 2.25 wt %
L-leucine amide ([4]; incubation time 24 h): 0.14 wt %

CC(C)C[C@H](N)C(=O)O [leucine]
racemization of leucine [5]: did not racemize

CC[C@@H](N)C(N)=O [D-aminobutyric acid amide]
Conversion ([3]; incubation time 21.5 h): 85.4%
